Measurements from patent US9415049B2, “Heteroaryl compounds and uses thereof” (Celgene Avilomics Research, Inc., priority 2013, dated 2016).

Key:
[1] = target: human recombinant full-length Btk enzyme (Homo sapiens, UniProt Q06187); assay: Covalent bonding assay, intact protein MALDI mass spectrometry; format: binding; set-up: The full-length recombinant human Btk protein; purchased Invitrogen Lot #619547Q (catalogue number not given); conditions: percentage of total protein covalently modified after one hour incubation, 10-fold excess of compound, room temperature
Description: The following example describes testing certain compounds to determine whether they covalently bind to BTK. The full-length recombinant human Btk protein (Lot #619547Q; 0.35 mg/mL) was obtained from Invitrogen (Carlsbad, Calif.). Btk protein was diluted 2:3 in phosphate-buffered saline and stock concentration (10 mM) of compound was diluted 1:115 in 50% DMSO.
For all compounds, 1 μL of diluted compound was added to 5 μL of diluted protein. These mixtures were then incubated for 60 minutes at a 10-fold excess of compound to protein under room temperature (˜24° C.) conditions.
At the end of the incubation, 5 μL aliquots of the samples were diluted with 15 μL of 0.2% TFA prior to micro C4 ZipTipping® directly onto the MALDI target plate using sinapinic acid as the desorption matrix (10 mg/mL in 0.2% TFA:Acetonitrile 50:50). Samples were immediately analyzed on an ABSciex 4800 MALDI TOF-TOF mass spectrometer.
For intact protein mass measurement, the mass spectrometer was set in linear mode using a pulsed extraction setting of 81,500. Bovine serum albumin (BSA; Sigma, St Louis, Mo.) was used as the standard to calibrate the instrument. These values correspond to the percentage of total protein covalently modified by the tested compound after one hour incubation.

[2] = target: T1, BTK autophosphorylation (Phospho Y223 Btk) in Ramos cells (Homo sapiens, UniProt Q06187); assay: Btk Ramos cell signaling immunoblot analysis, phospho-Btk; format: cell-based; conditions: 1 hour compound incubation, anti-human IgM stimulation, phospho-Btk normalized to total Btk, read-out: pBtk EC50
T1 construct: endogenous in cells; host or cells: Ramos cells
Description: (§1) The following example describes testing certain compounds according to the invention for inhibition of BTK activity. Ramos cells were incubated in serum-free RPMI medium for 1-1.5 hours. Cells were then centrifuged for 5 minutes at 1100 RPM and resuspended in serum-free RPMI in 15 mL roundbottom Corning tubes (˜2×10^6 cells/mL in 4 mL/tube). The compound was diluted in DMSO and was added to the cells to achieve a final concentration of 0.0003, 0.001, 0.003, 0.01, 0.03, 0.1, 0.3, and 1.0 μM. Cells were then incubated for 1 hour at 37° C. Following incubation, cells were spun at 1100 RPM for 5 minutes and then resuspended in 100 μL of serum-free RPMI. […] Supernatant was transferred to a fresh tube and analyzed for protein content. […]
(§2) 10 μg of protein was denatured by adding 1:10 (v:v) of NuPage Reducing Agent plus 1:4 (v:v) of LDS Loading Buffer. […] The membrane was then scanned on a LiCor Odyssey Scanner using infrared fluorescence detection.
(§3) Data analysis was accomplished using the analysis package found in Odyssey Infrared Imaging System software in which intensities of total Btk and phospho-Btk were measured. Phospho-Btk was normalized to total Btk protein in each lane as a loading control and results are expressed as % activity compared to the DMSO control (100%) Inhibition of phospho-PLCγ2 was quantitated in a similar manner. […]

[3] = system: PLCγ2 phosphorylation (Phospho Y-1217 PLCγ2) in Ramos cells; assay: Btk Ramos cell signaling immunoblot analysis, phospho-PLCγ2; format: cell-based; conditions: 1 hour compound incubation, anti-human IgM stimulation, read-out: pPLCγ2 EC50
Description: as §1, §2, §3

T1 sequence (Q06187 whole entry): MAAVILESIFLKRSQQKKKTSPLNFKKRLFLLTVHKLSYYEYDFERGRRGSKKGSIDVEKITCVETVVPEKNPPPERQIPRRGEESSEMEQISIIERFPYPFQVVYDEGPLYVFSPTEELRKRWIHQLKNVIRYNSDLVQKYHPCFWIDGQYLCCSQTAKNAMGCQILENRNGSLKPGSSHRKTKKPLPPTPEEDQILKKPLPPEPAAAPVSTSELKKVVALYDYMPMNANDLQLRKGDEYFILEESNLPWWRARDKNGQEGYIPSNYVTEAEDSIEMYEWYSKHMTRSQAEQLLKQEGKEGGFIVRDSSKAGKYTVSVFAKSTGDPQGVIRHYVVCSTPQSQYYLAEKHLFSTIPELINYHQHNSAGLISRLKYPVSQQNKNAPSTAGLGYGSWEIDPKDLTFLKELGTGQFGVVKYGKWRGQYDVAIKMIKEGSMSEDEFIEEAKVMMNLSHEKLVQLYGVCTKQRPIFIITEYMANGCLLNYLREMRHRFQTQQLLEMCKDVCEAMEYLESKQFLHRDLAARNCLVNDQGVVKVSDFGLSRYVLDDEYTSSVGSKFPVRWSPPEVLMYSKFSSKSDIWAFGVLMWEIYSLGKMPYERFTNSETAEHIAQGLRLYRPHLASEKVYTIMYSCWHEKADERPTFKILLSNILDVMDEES
Sequence of human recombinant full-length Btk enzyme (Q06187 whole entry): as above

| MS % modification [1] | EC50 [2] [nM] | EC50 [3] [nM] | SMILES |
| --- | --- | --- | --- |
| B (31-69% modification) | < 10 | < 10 | C=CC(=O)Nc1cccc(Nc2nc(Nc3ccc(OCCO)cc3)ncc2F)c1 [Compound I-1, N-(3-((5-fluoro-2-((4-(2-hydroxyethoxy)phenyl)amino)pyrimidin-4-yl)amino)phenyl)acrylamide] |
| A (>70% modification) | 10 to 50 | 10 to 50 | C=CC(=O)Nc1cccc(Nc2nc(Nc3ccc(O)cc3)ncc2F)c1 [Compound I-3, N-(3-((5-fluoro-2-((4-hydroxyphenyl)amino)pyrimidin-4-yl)amino)phenyl)acrylamide] |
